The source of these data is patent publication US10730874B2 (Shire Human Genetic Therapies, Inc., priority 2018, dated 2020).

Molecules are shown by their SMILES.

human activated kallikrein enzyme (plasma kallikrein), sequence (P03952 391-638): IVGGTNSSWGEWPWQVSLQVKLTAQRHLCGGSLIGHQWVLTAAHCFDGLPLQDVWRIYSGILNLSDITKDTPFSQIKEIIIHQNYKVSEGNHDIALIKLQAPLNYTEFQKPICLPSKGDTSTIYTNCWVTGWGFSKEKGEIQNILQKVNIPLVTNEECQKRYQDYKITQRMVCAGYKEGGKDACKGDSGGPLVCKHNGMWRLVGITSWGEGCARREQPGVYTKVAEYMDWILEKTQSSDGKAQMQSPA
human activated kallikrein enzyme (plasma kallikrein), sequence (P03952 20-390 partner): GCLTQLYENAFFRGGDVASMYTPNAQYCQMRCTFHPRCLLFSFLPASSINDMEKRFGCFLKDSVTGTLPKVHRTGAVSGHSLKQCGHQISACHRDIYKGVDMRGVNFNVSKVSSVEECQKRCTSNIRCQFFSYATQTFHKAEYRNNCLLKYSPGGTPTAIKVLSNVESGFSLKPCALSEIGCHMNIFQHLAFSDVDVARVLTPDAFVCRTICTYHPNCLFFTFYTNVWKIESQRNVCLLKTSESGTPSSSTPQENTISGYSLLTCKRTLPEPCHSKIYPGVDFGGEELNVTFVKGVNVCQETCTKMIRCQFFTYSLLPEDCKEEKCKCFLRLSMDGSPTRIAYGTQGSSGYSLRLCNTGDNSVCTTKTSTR

For the assay, the target named is human activated kallikrein enzyme (plasma kallikrein) (Homo sapiens (Human), UniProt P03952). In words: Inhibition of human activated plasma kallikrein, fluorogenic peptide substrate assay, 500 pM enzyme format. It is filed as biochemical. The note with it: 500 pM activated kallikrein enzyme, 300 uM Pro-Phe-Arg-7-amido-4-methylcoumarin substrate, 30 min preincubation, 10 min at RT; read-out: Primary Dose Response Assay: Average EC50. Summed up:
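Buffer 20 mM Tris pH 7.5, EDTA, NaCl, PEG-400, Triton X-100; 300 uM Pro-Phe-Arg-AMC; enzyme–inhibitor preincubation 30 min RT. Format one: 500 pM kallikrein, 10 min RT reaction; format two: 5 pM kallikrein, 18 h RT reaction. Fluorescence read at 460 nm (380 nm excitation).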
Usually EC50 stands for the concentration needed to bring the measured effect to its halfway point. `O=C(O)c1ccn(Cc2cc(C3CC3)cn3cc(Cn4cc(C(=O)NCc5ncn6ccc(Cl)c(F)c56)nn4)nc23)n1` [Example I-202, 1-((2-((4-(((7-chloro-8-fluoroimidazo[1,5-a]pyridin-1-yl)methyl)carbamoyl)-1H-1,2,3-triazol-1-yl)methyl)-6-cyclopropylimidazo[1,2-a]pyridin-8-yl)methyl)-1H-pyrazole-3-carboxylic acid]: the EC50 was less than 1 nM. For `O=C(NCc1ncn2ccc(Cl)c(F)c12)c1cn(Cc2cn3cc(C4CC4)cc(N4CCCC4=O)c3n2)nn1` [Example I-203, N-((7-chloro-8-fluoroimidazo[1,5-a]pyridin-1-yl)methyl)-1-((6-cyclopropyl-8-(2-oxopyrrolidin-1-yl)imidazo[1,2-a]pyridin-2-yl)methyl)-1H-1,2,3-triazole-4-carboxamide] the value was less than 1 nM. The figure for `O=C(NCc1ncn2ccc(Cl)c(F)c12)c1cn(Cc2cn3cc(C4CC4)cc(Br)c3n2)nn1` [Example I-204, 1-((8-bromo-6-cyclopropylimidazo[1,2-a]pyridin-2-yl)methyl)-N-((7-chloro-8-fluoroimidazo[1,5-a]pyridin-1-yl)methyl)-1H-1,2,3-triazole-4-carboxamide] is less than 1 nM.

On to `CCOC(=O)C(C)(C)Cc1cc(C2CC2)cn2cc(Cn3cc(C(=O)NCc4ncn5ccc(Cl)c(F)c45)nn3)nc12` [Example I-205, ethyl 3-(2-((4-(((7-chloro-8-fluoroimidazo[1,5-a]pyridin-1-yl)methyl)carbamoyl)-1H-1,2,3-triazol-1-yl)methyl)-6-cyclopropylimidazo[1,2-a]pyridin-8-yl)-2,2-dimethylpropanoate], for which the half-maximal effective concentration (EC50) is less than 1 nM. For `CC(C)(Cc1cc(C2CC2)cn2cc(Cn3cc(C(=O)NCc4ncn5ccc(Cl)c(F)c45)nn3)nc12)C(=O)O` [Example I-206, 3-(2-((4-(((7-chloro-8-fluoroimidazo[1,5-a]pyridin-1-yl)methyl)carbamoyl)-1H-1,2,3-triazol-1-yl)methyl)-6-cyclopropylimidazo[1,2-a]pyridin-8-yl)-2,2-dimethylpropanoic acid] the value was less than 1 nM. The figure for `CCOC(=O)COc1cc(C2CC2)cn2cc(Cn3cc(C(=O)NCc4ncn5ccc(Cl)c(F)c45)nn3)nc12` [Example I-207, ethyl 2-((2-((4-(((7-chloro-8-fluoroimidazo[1,5-a]pyridin-1-yl)methyl)carbamoyl)-1H-1,2,3-triazol-1-yl)methyl)-6-cyclopropylimidazo[1,2-a]pyridin-8-yl)oxy)acetate] is less than 1 nM; for `O=C(O)COc1cc(C2CC2)cn2cc(Cn3cc(C(=O)NCc4ncn5ccc(Cl)c(F)c45)nn3)nc12` [Example I-208, 2-((2-((4-(((7-chloro-8-fluoroimidazo[1,5-a]pyridin-1-yl)methyl)carbamoyl)-1H-1,2,3-triazol-1-yl)methyl)-6-cyclopropylimidazo[1,2-a]pyridin-8-yl)oxy)acetic acid] it is less than 1 nM. Consider `O=C(NCc1ncn2ccc(Cl)c(F)c12)c1cn(Cc2cc3ncc(C4CC4)cn3n2)nn1` [Example I-209, N-((7-chloro-8-fluoroimidazo[1,5-a]pyridin-1-yl)methyl)-1-((6-cyclopropylpyrazolo[1,5-a]pyrimidin-2-yl)methyl)-1H-1,2,3-triazole-4-carboxamide], for which the EC50 was 1 to 10 nM. For `CCOC(=O)c1nnc(Cc2cc(C3CC3)cn3cc(Cn4cc(C(=O)NCc5ncn6ccc(Cl)c(F)c56)nn4)nc23)o1` [Example I-210a, ethyl 5-((2-((4-(((7-chloro-8-fluoroimidazo[1,5-a]pyridin-1-yl)methyl)carbamoyl)-1H-1,2,3-triazol-1-yl)methyl)-6-cyclopropylimidazo[1,2-a]pyridin-8-yl)methyl)-1,3,4-oxadiazole-2-carboxylate] the value was less than 1 nM; for `O=C(NCc1ncn2ccc(Cl)c(F)c12)c1cn(Cc2cn3cc(C4CC4)cc(Cc4nnco4)c3n2)nn1` [Example I-210b, 1-((8-((1,3,4-oxadiazol-2-yl)methyl)-6-cyclopropylimidazo[1,2-a]pyridin-2-yl)methyl)-N-((7-chloro-8-fluoroimidazo[1,5-a]pyridin-1-yl)methyl)-1H-1,2,3-triazole-4-carboxamide], less than 1 nM.

`O=C(NCc1ncn2ccc(Cl)c(F)c12)c1cn(Cc2[nH]c3ccc(C4CC4)cc3c2C(F)(F)F)nn1` [Example I-211, N-((7-chloro-8-fluoroimidazo[1,5-a]pyridin-1-yl)methyl)-1-((5-cyclopropyl-3-(trifluoromethyl)-1H-indol-2-yl)methyl)-1H-1,2,3-triazole-4-carboxamide]: the EC50 is 10 to 100 nM. The figure for `CC(C)(Oc1cc(C2CC2)cn2cc(Cn3cc(C(=O)NCc4ncn5ccc(Cl)c(F)c45)nn3)nc12)C(=O)O` [Example I-212, 2-((2-((4-(((7-chloro-8-fluoroimidazo[1,5-a]pyridin-1-yl)methyl)carbamoyl)-1H-1,2,3-triazol-1-yl)methyl)-6-cyclopropylimidazo[1,2-a]pyridin-8-yl)oxy)-2-methylpropanoic acid] is less than 1 nM. As for `CC(F)c1cc(C2CC2)cn2cc(Cn3cc(C(=O)NCc4ncn5ccc(Cl)c(F)c45)nn3)nc12` (centres unmarked) [Example I-213, N-((7-chloro-8-fluoroimidazo[1,5-a]pyridin-1-yl)methyl)-1-((6-cyclopropyl-8-(1-fluoroethyl)imidazo[1,2-a]pyridin-2-yl)methyl)-1H-1,2,3-triazole-4-carboxamide], the 50% effective concentration (EC50) is less than 1 nM. The figure for `O=C(NCc1ncn2ccc(Cl)c(F)c12)c1cnn(Cc2cn3cc(C4CC4)cc(Cc4nnco4)c3n2)c1` [Example I-214, 1-((8-((1,3,4-oxadiazol-2-yl)methyl)-6-cyclopropylimidazo[1,2-a]pyridin-2-yl)methyl)-N-((7-chloro-8-fluoroimidazo[1,5-a]pyridin-1-yl)methyl)-1H-pyrazole-4-carboxamide] is less than 1 nM; for `O=C(NCc1ncn2ccc(Cl)c(F)c12)c1cnn(Cc2cn3cc(C4CC4)cc(C4COC4)c3n2)c1` [Example I-215, N-((7-chloro-8-fluoroimidazo[1,5-a]pyridin-1-yl)methyl)-1-((6-cyclopropyl-8-(oxetan-3-yl)imidazo[1,2-a]pyridin-2-yl)methyl)-1H-pyrazole-4-carboxamide] it is less than 1 nM. For the compound `O=C(NCc1ncn2ccc(Cl)c(F)c12)c1cn(Cc2cn3cc(C4CC4)cc(N4CCOC4=O)c3n2)nn1` [Example I-216, N-((7-chloro-8-fluoroimidazo[1,5-a]pyridin-1-yl)methyl)-1-((6-cyclopropyl-8-(2-oxooxazolidin-3-yl)imidazo[1,2-a]pyridin-2-yl)methyl)-1H-1,2,3-triazole-4-carboxamide], the 50% effective concentration (EC50) is less than 1 nM. For `O=C(NCc1ncn2ccc(Cl)c(F)c12)c1cn(Cc2cn3ncc(C4CC4)cc3n2)nn1` [Example I-217, N-((7-chloro-8-fluoroimidazo[1,5-a]pyridin-1-yl)methyl)-1-((7-cyclopropylimidazo[1,2-b]pyridazin-2-yl)methyl)-1H-1,2,3-triazole-4-carboxamide] the value was 1 to 10 nM; for `O=C(NCc1ncn2ccc(Cl)c(F)c12)c1cn(Cc2cn3cc(C4CC4)cc(-n4cccn4)c3n2)nn1` [Example I-220, N-((7-chloro-8-fluoroimidazo[1,5-a]pyridin-1-yl)methyl)-1-((6-cyclopropyl-8-(1H-pyrazol-1-yl)imidazo[1,2-a]pyridin-2-yl)methyl)-1H-1,2,3-triazole-4-carboxamide], less than 1 nM; for `COC(=O)C1(Cc2cc(C3CC3)cn3cc(Cn4cc(C(=O)NCc5ncn6ccc(Cl)c(F)c56)nn4)nc23)CCCC1` [Example I-221a, methyl 1-((2-((4-(((7-chloro-8-fluoroimidazo[1,5-a]pyridin-1-yl)methyl)carbamoyl)-1H-1,2,3-triazol-1-yl)methyl)-6-cyclopropylimidazo[1,2-a]pyridin-8-yl)methyl)cyclopentane-1-carboxylate], less than 1 nM.

`O=C(NCc1ncn2ccc(Cl)c(F)c12)c1cn(Cc2cn3cc(C4CC4)cc(CC4(C(=O)O)CCCC4)c3n2)nn1` [Example I-221b, 1-((2-((4-(((7-chloro-8-fluoroimidazo[1,5-a]pyridin-1-yl)methyl)carbamoyl)-1H-1,2,3-triazol-1-yl)methyl)-6-cyclopropylimidazo[1,2-a]pyridin-8-yl)methyl)cyclopentane-1-carboxylic acid]: the EC50 is less than 1 nM. The figure for `CCOc1c(Cl)ccn2cnc(CNC(=O)c3cn(Cc4cn5cc(C6CC6)cc(CC6(C(=O)O)CCCC6)c5n4)nn3)c12` [Example I-221c, 1-((2-((4-(((7-chloro-8-ethoxyimidazo[1,5-a]pyridin-1-yl)methyl)carbamoyl)-1H-1,2,3-triazol-1-yl)methyl)-6-cyclopropylimidazo[1,2-a]pyridin-8-yl)methyl)cyclopentane-1-carboxylic acid] is 10 to 100 nM; for `O=C(NCc1ncn2ccc(Cl)c(F)c12)c1cn(Cc2cc3ccc(Cl)cc3[nH]2)nn1` [Example I-222, 1-((6-chloro-1H-indol-2-yl)methyl)-N-((7-chloro-8-fluoroimidazo[1,5-a]pyridin-1-yl)methyl)-1H-1,2,3-triazole-4-carboxamide] it is 100 to 2000 nM; for `CCOC(=O)C(C)(C)Oc1cc(C2CC2)cn2cc(Cn3cc(C(=O)NCc4ncn5ccc(Cl)c(F)c45)nn3)nc12` [Example I-223, ethyl 2-((2-((4-(((7-chloro-8-fluoroimidazo[1,5-a]pyridin-1-yl)methyl)carbamoyl)-1H-1,2,3-triazol-1-yl)methyl)-6-cyclopropylimidazo[1,2-a]pyridin-8-yl)oxy)-2-methylpropanoate] it is less than 1 nM.
